According to ChEMBL document CHEMBL5321279 (J Med Chem, 2023):
Active and inactive are the calls of the source. No cut-off for these calls is given here.

Key:
[1] = (§1) Cytotoxicity against human primary hepatocytes assessed as reduction in cell growth measured after 5 days by CellTiter-Glo assay; assay type: toxicity, cell-based, Hepatocyte; conditions: primary hepatocytes, time 5 day
[2] = Stability of compound in cynomolgus monkey gastrointestinal S9 fraction assessed as half life at pH 7.4 measured upto 120 mins by LC-MS/MS analysis; assay type: ADME, subcellular, Macaca fascicularis, Gastrointestinal tract
[3] = Stability of compound in human gastrointestinal S9 fraction assessed as half life at pH 7.4 measured upto 120 mins by LC-MS/MS analysis; assay type: ADME, subcellular, Gastrointestinal tract
[4] = Stability of compound in rat liver S9 fraction assessed as half life at pH 7.4 measured upto 90 mins by LC-MS/MS analysis; assay type: ADME, subcellular
CES1c = experiment: Stability of compound assessed as human recombinant CES1c-mediated compound hydrolysis by measuring half life at pH 7.4 using oseltamivir as substrate measured upto 120 mins by LC-MS/MS analysis; assay type: ADME; conditions: pH 7.4, probe oseltamivir
CES2 (cocaine esterase) = target: T1, CES2 (cocaine esterase) (Homo sapiens, UniProt O00748); experiment: Stability of compound assessed as human recombinant CES2-mediated compound hydrolysis by measuring half life at pH 7.4 using oseltamivir as substrate measured upto 120 mins by LC-MS/MS analysis; assay type: ADME; conditions: recombinant CES2, pH 7.4, probe oseltamivir
T1 sequence (O00748 whole entry): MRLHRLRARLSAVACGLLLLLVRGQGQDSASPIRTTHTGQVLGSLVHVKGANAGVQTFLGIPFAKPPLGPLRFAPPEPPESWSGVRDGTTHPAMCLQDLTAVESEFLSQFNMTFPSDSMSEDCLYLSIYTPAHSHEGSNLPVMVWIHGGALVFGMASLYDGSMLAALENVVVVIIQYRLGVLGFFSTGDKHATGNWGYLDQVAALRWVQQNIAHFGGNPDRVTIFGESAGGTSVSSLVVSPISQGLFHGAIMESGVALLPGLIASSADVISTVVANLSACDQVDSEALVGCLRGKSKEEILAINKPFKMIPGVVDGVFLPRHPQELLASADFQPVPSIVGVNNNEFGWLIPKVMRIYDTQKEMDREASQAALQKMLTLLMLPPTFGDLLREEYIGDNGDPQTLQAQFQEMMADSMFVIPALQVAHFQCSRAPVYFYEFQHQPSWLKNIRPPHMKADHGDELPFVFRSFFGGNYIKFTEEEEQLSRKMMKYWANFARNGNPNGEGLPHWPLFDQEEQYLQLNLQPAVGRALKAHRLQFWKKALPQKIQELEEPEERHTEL

[5] = AUC(0 to 24 hrs) in African green monkey at 86.5 mg/kg, po measured upto 24 hrs by LC-MS/MS analysis; assay type: ADME, organism-based; parameters: dose 86.5 mg/kg, time < 24 hrs, route po; conditions: chlorocebus sabaeus, in vivo
[6] = Oral bioavailability in rat assessed as prodrug conversion by measuring (2R,3R,4S,5R)-2-(4-aminopyrrolo[2,1-f][1,2,4]triazin-7-yl)-3,4-dihydroxy-5-(hydroxymethyl)tetrahydrofuran-2-carbonitrile at 6 mg/kg measured upto 24 hrs by LC-MS/MS analysis; assay type: ADME, organism-based; conditions: in vivo
[7] = Oral bioavailability in dog assessed as prodrug conversion by measuring (2R,3R,4S,5R)-2-(4-aminopyrrolo[2,1-f][1,2,4]triazin-7-yl)-3,4-dihydroxy-5-(hydroxymethyl)tetrahydrofuran-2-carbonitrile at […] measured upto 24 hrs by LC-MS/MS analysis; assay type: ADME, organism-based, Canis lupus familiaris; conditions: in vivo
Hepatocyte = experiment: as §1; assay type: toxicity, cell-based; conditions: hepatocytes, 120 h, time 5 day
[8] = Drug metabolism in human NHBE-T cells assessed as Nucleotide triphosphate metabolite formation at 10 uM measured after 48 hrs by LC-MS analysis; assay type: ADME, cell-based
[9] = Half life in dog assessed as prodrug conversion by measuring (2R,3R,4S,5R)-2-(4-aminopyrrolo[2,1-f][1,2,4]triazin-7-yl)-3,4-dihydroxy-5-(hydroxymethyl)tetrahydrofuran-2-carbonitrile at […], po measured upto 24 hrs by LC-MS/MS analysis; assay type: ADME, organism-based, Canis lupus familiaris; conditions: in vivo
[10] = Half life in cynomolgus monkey assessed as prodrug conversion by measuring (2R,3R,4S,5R)-2-(4-aminopyrrolo[2,1-f][1,2,4]triazin-7-yl)-3,4-dihydroxy-5-(hydroxymethyl)tetrahydrofuran-2-carbonitrile at 11.7 mg/kg, po measured upto 24 hrs by LC-MS/MS analysis; assay type: ADME, organism-based, Macaca fascicularis; conditions: in vivo
[11] = Half life in African green monkey assessed as prodrug conversion by measuring (2R,3R,4S,5R)-2-(4-aminopyrrolo[2,1-f][1,2,4]triazin-7-yl)-3,4-dihydroxy-5-(hydroxymethyl)tetrahydrofuran-2-carbonitrile at 86.5 mg/kg, po measured upto 24 hrs by LC-MS/MS analysis; assay type: ADME, organism-based; conditions: chlorocebus sabaeus, in vivo
[12] = Cmax in dog assessed as prodrug conversion by measuring (2R,3R,4S,5R)-2-(4-aminopyrrolo[2,1-f][1,2,4]triazin-7-yl)-3,4-dihydroxy-5-(hydroxymethyl)tetrahydrofuran-2-carbonitrile at […], po measured upto 24 hrs by LC-MS/MS analysis; assay type: ADME, organism-based, Canis lupus familiaris; conditions: in vivo
SARS-CoV-2 [13] = experiment: Antiviral activity against SARS-CoV-2 infected in African green monkey assessed as reduction in viral load in BALF at 60 to 120 mg/kg, po qd administered for 6 days starting from 8 hrs post infection by PFA assay; assay type: functional, organism-based; conditions: Severe acute respiratory syndrome coronavirus 2, dose lower 60.0 mg/kg, dose upper […], time 6.0 day
SARS-CoV-2 [14] = experiment: Antiviral activity against SARS-CoV-2 infected in African green monkey assessed as reduction in viral titer in throat swabs at 60 to 120 mg/kg, po qd administered for 6 days starting from 8 hrs post infection by PFA assay; assay type: functional, organism-based; conditions: Severe acute respiratory syndrome coronavirus 2, dose lower 60.0 mg/kg, dose upper […], time 6.0 day
SARS-CoV-2 [15] = experiment: Antiviral activity against SARS-CoV-2 infected in African green monkey assessed as reduction in viral titer in nasal swabs at 60 to 120 mg/kg, po qd administered for 4 days starting from 8 hrs post infection by PFA assay; assay type: functional, organism-based; conditions: Severe acute respiratory syndrome coronavirus 2, dose lower 60.0 mg/kg, dose upper […], time 4.0 day
SARS-CoV-2 [16] = experiment: Antiviral activity against SARS-CoV-2 infected in African green monkey assessed as reduction in viral genomic RNA load in nasal swabs at 60 to 120 mg/kg, po qd administered for 4 days starting from 8 hrs post infection by RT-qPCR analysis; assay type: functional, organism-based; conditions: Severe acute respiratory syndrome coronavirus 2, dose lower 60.0 mg/kg, dose upper […], time 4.0 day

SMILES | CC50 at 120 h [1] [nM] | half-life [2] [min] | half-life [3] [min] | half-life at […] [4] [min] | half-life (CES1c) [min] | half-life (CES2 (cocaine esterase)) [min] | AUC [5] [µM·h] | F [6] [%] | F [7] [%] | CC50 (Hepatocyte) [nM] | Drug metabolism [8] | t1/2 [9] [min] | t1/2 [10] [min] | t1/2 [11] [min] | Cmax [12] [µM] | Activity (SARS-CoV-2 [13]) | Activity (SARS-CoV-2 [14]) | Activity (SARS-CoV-2 [15]) | Activity (SARS-CoV-2 [16])
CCC(CC)COC(=O)[C@H](C)N[P@](=O)(OC[C@H]1O[C@@](C#N)(c2ccc3c(N)ncnn23)[C@H](O)[C@@H]1O)Oc1ccccc1 | 2500 |  |  |  |  |  |  |  |  |  |  |  |  |  |  |  |  |  | 
CC(C)C(=O)OC[C@H]1O[C@@](C#N)(c2ccc3c(N)ncnn23)[C@H](O)[C@@H]1O [OBELDESIVIR] |  | < 2 | < 2 | < 2 | 4.3 | < 2 | 0.68 | 63 | 93 | > 100000 | Metabolite_Detected | 217 | 157 | 179 | 57.8 | Active | Active | Active | Active
